Data taken from paper PMC9576799, “Discovery of small molecule inhibitors that effectively disrupt IQGAP1-Cdc42 interaction in breast cancer cells” (Scientific Reports, 2022).

Molecular target: T1, GST-IQGAP1-C / His-Cdc42-Q61L (Homo sapiens, UniProt P46940)
T1 construct: the C-terminal half of IQGAP1 (comprising amino acids 864–1657) containing a GST-tag; made in house; host or cells: Escherichia coli (BL-21 for GST-IQGAP1-C)
T1 sequence (P46940 864-1657): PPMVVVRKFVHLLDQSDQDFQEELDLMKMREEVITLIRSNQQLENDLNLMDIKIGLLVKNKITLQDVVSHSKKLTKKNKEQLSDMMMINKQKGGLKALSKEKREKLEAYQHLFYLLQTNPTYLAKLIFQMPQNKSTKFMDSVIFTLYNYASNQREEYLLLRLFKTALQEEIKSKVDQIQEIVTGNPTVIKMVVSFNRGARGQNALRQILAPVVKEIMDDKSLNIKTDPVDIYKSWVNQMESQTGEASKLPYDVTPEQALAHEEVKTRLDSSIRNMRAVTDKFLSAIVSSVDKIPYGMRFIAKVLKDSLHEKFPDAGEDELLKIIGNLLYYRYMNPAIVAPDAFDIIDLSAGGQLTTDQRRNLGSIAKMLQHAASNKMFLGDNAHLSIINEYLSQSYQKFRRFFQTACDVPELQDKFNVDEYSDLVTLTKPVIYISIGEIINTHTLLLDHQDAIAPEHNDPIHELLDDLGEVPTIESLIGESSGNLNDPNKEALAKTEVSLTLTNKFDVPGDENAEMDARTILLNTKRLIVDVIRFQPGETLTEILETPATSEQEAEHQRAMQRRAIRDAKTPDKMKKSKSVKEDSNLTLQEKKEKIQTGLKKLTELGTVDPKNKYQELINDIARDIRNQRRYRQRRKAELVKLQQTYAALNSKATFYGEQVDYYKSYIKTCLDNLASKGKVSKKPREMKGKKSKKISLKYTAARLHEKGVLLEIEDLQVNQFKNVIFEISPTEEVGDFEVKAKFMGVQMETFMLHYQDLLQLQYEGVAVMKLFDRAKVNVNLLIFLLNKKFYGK
Test: HTRF IQGAP1-Cdc42 binding assay (validation / confirmatory)
Details: 50 nM His-Cdc42-Q61L, 1.5 nM GST-IQGAP1-C
Method: Recombinant His-Cdc42-Q61L, GST-IQGAP1-C in combination with acceptor XL665 conjugated anti-His antibody (Anti-His-XL665) and donor Eu-cryptate conjugated anti-GST antibody (anti-GST-cryptate) were used for the HTRF assay to perform a high throughput screening of compound libraries in 1536-well white solid bottom medium-binding plates (Greiner Bio-One).
For the assay, His-Cdc42-Q61L and GST-IQGAP1-C proteins were diluted and pre-mixed in the binding buffer (50 mM Tris, pH 7.5, 150 mM NaCl and 0.01% Triton-X100) to final assay concentrations of 50 nM His-Cdc42-Q61L and 1.5 nM GST-IQGAP1-C. As control, 1.5 nM GST-IQGAP1-C in the absence of His-Cdc42-Q61L was used to gauge the maximal potential inhibition (IC100). Anti-His-XL665 and anti-GST-cryptate antibodies were prepared as threefold concentrated working mixture in binding buffer just prior to dispensing, with final assay concentrations of 5 ng/μL and 0.7 ng/µL, respectively. Pre-mixed proteins (4 µL/well) were dispensed to assay plates with a BioRAPTR FRD™ dispenser. […] The signal was detected immediately with an Envision plate reader (Perkin Elmer) using the HTRF settings (excitation at 340 nm, dual emission at 665 nm and 620 nm). […] The data were calculated as the ratio 665/620 × 10^4 to normalize for any effects in the donor channel. […]

## Cc1cccc(NC(=O)c2c(NC(=O)C(F)(F)F)sc3c2CCCCC3)c1 [NCGC00098561]
  EC50: 7.94 µM
3 h, read-out: efficacy, HTRF validation assay
  Emax: 84%
